Reference: PubChem BioAssay AID743170 (Sanford-Burnham Center for Chemical Genomics, 2013)
Where “and” joins values, the source holds several entries; their conditions need not be identical. Identical values can stand only once. Calls of active or inactive are those of the source.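 The calls were made as follows: active = compounds that lower Nile red lipid droplet staining in rat heart muscle cells with dose, giving a fitted IC50; inactive = the rest.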

System: H9c2 cells, Nile red TAG accumulation, high-content imaging
Experiment: Nile red lipid droplet reduction, imaging readout – H9c2 cells, high-content screening, dose response (AID 743170)

| Compound | IC50 |
| --- | --- |
| COCCn1cnc2cccc(C(=O)Nc3cccc(-c4nc5ccccc5[nH]4)c3)c2c1=O | > 50 µM (inactive) |
| CSCCCN1Cc2cccc(C(=O)Nc3cccc(-c4nc5ccccc5[nH]4)c3)c2C1=O | 0.526 µM |
| COCCCN1Cc2cccc(C(=O)Nc3cccc(-c4nc5ccccc5[nH]4)c3)c2C1=O | 1.37 µM |
| COCCN1Cc2cccc(C(=O)Nc3cccc(-c4nc5ccc(F)cc5[nH]4)c3)c2C1=O | 0.762 µM |
| O=C(Nc1cccc(-c2nc3ccccc3[nH]2)c1)c1cccc2c1C(=O)N(CCOc1ccccc1)C2 | 0.793 µM |
| COCCN1Cc2cccc(C(=O)Nc3nc4ccccc4n3C)c2C1=O | > 50 µM (inactive) |
| O=C(Nc1cccc(-c2nc3ccccc3[nH]2)c1)c1cccc2c1C(=O)N(CCN1CCOCC1)C2 | 1.75 µM |
| COCCN1Cc2cccc(C(=O)Nc3cccc(-c4nc5ccc(C)cc5[nH]4)c3)c2C1=O | 0.393 µM |
| COc1ccc(CCN2Cc3cccc(C(=O)Nc4cccc(-c5nc6ccccc6[nH]5)c4)c3C2=O)cc1OC | 0.829 µM |
| COCCN1Cc2cccc(C(=O)Nc3cccc(-c4nc5ccccc5[nH]4)c3)c2C1=O | 0.567 µM and 0.569 µM and 0.839 µM |
| COCCN1Cc2cccc(C(=O)NCc3cccc(N(C)C)c3)c2C1=O | > 50 µM (inactive) |
| COCCN1Cc2cccc(C(=O)Nc3cccc(-c4nc5ccc(C(F)(F)F)cc5[nH]4)c3)c2C1=O | 0.352 µM |
| COCCN1Cc2cccc(C(=O)Nc3nc4ccccc4[nH]3)c2C1=O | > 50 µM (inactive) |
| COCCN1Cc2cccc(C(=O)Nc3cccc(C(=O)Nc4ccccc4)c3)c2C1=O | 2.33 µM |

The remaining lines, values ahead:

| IC50 | Compound |
| --- | --- |
| 0.432 µM | COc1ccccc1CCN1Cc2cccc(C(=O)Nc3cccc(-c4nc5ccccc5[nH]4)c3)c2C1=O |
| > 50 µM (inactive) | COCCN1Cc2cccc(C(=O)Nc3cccnc3)c2C1=O |
| 1.02 µM | COCCN1Cc2cccc(C(=O)Nc3cccc(-c4nc5ccc(Cl)cc5[nH]4)c3)c2C1=O |
| > 50 µM (inactive) | CCOC(=O)c1cccc(NC(=O)c2cccc3c2C(=O)N(CCOC)C3)c1 |
| 0.76 µM | CCCCN1Cc2cccc(C(=O)Nc3cccc(-c4nc5ccccc5[nH]4)c3)c2C1=O |
| 2.49 µM | COCCN1Cc2cccc(C(=O)Nc3cccc(C(=O)Nc4ccccc4OC)c3)c2C1=O |
| 0.662 µM | O=C(Nc1cccc(-c2nc3ccccc3[nH]2)c1)c1cccc2c1C(=O)N(CC1CC1)C2 |
| 0.792 µM | CCOCCN1Cc2cccc(C(=O)Nc3cccc(-c4nc5ccccc5[nH]4)c3)c2C1=O |
| 11.2 µM | O=C(Nc1cccc(-c2nc3ccccc3[nH]2)c1)c1cccc2c1C(=O)N(CCc1ccccc1)C2 |
